Experimental data as given in patent US20240102022A1, “MODULATING BONE MORPHOGENIC PROTEIN (BMP) SIGNALING IN THE TREATMENT OF ALZHEIMER'S DISEASE” (CZ Biohub SF, LLC, priority 2020, published 2024).

Legend:
[1] = test system: phospho-SMAD 1/5/8 in human fetal neurospheres expressing mutant APP; assay: phospho-SMAD 1/5/8 immunofluorescence staining in neurospheres treated with BMP receptor inhibitor; format: cell-based; conditions: neurospheres treated for 1 week, different doses; FIGS. 5B and C
Text: (§1) A human fetal neural stem cell line from University of California Irvine was developed from fetal neural tissue at 18 week gestational age enriched for CD133+ cells. The use of neural progenitor cells as non-hESC stem cells in this study is compliant to Stanford Stem Cell Research Oversight (SCRO) Protocol 194 pre-approved by the Internal Review Board (IRB)/SCRO of the Stanford Research Compliance Office (RCO). Informed consent was obtained, and standard material transfer agreement signed. Cells were grown in nonadherent ultra-low attachment well plates in X-VIVO 15 media (LONZA) supplemented with LIF (10 ng/ml), N2 Supplement, N-acetylcysteine (63 ug/ml), Heparin (2 ug/ml), EGF (20 ng/ml), and FGF (20 ng/ml).
(§2) cDNA for mutant APP harboring the Swedish and Indiana mutations was cloned into a pHIV-Zsgreen backbone obtained from Addgene. Lipofectamine 2000 was used to transduce the construct (either pHIV-Zsgreen+mutant APP or pHIV-Zsgreen alone) into H293T cells and media was collected after 48 hours. Virus was ultra-centrifuged and resuspended in PBS then titered before infecting human fetal neurospheres.
Neurospheres were cytospun onto slides and fixed in ice-cold methanol for 5 minutes. Slides were rinsed 3 times in phosphate-buffered saline (PBS) at room temperature, followed by blocking in 3% BSA in PBS for 1 hour at room temperature. […]

[2] = test system: Zsgreen control neurospheres; assay: Colony counts of Zsgreen-infected control human fetal neurospheres after 1 week of treatment; format: cell-based; conditions: 1 week treatment; FIG. 5E
Text: as §1, §2
Human neurospheres were dissociated into single cells and infected with either a lentiviral construct containing pHIV-Zsgreen+mutant APP or pHIV-Zsgreen alone and allowed to grow for a week. […] Colonies were counted after 7 days.

pSMAD 1/5/8 level after treatment [1]: substantially decreased
SMILES: c1ccc2c(-c3cnn4cc(-c5ccc(N6CCNCC6)cc5)cnc34)ccnc2c1 [LDN-193189]
impact on Zsgreen control neurosphere growth [2]: minimal impact
